The values that follow come from EP0141884A1, “Novel phenylpiperazine derivatives, process for preparing them and therapeutic compositions containing them” (JUSTE, S.A. QUIMICO-FARMACEUTICA, priority 1983, dated 1985).

The experiment has as its system female Swiss mice. As to the kind of experiment: Analgesic activity, writhing test (2-phenyl-1,4-benzoquinone as nociceptive agent). Particulars: Mus musculus, po, 1 h, Table 1, oral route one hour before i.p. 0.02% 2-phenyl 1-4 benzoquinone, dose reducing writhes by 50%. In kind it is in vivo. As to the method: The studies of analgesic activity for these compounds have been carried out over 2,178 mice by using the "writhing test" method. 2-Phenylbenzoquinone was used as nociceptive agent and the material under test was administered by the oral route. In all the cases the ED50, ED16 and ED84 (minimum dose for each product which reduces the writhes by 50, 16 and 84% respectively) were calculated, as well as the 95% confidence limits for the ED50. The oral acute toxicity study (LD50 determination) has been performed using 770 Swiss mice (half males and half females) weighing 18-22 g.
A slight modification of the method described by Hendershot and Forshait J. Pharmacol. Exp. Ther. 125, 237 (1959) which employs as nociceptive agent a 0.02% hydroalcoholic solution of 2-phenyl 1-4 benzoquinone, was used. 0.2 ml Of this solution was administered by the i.p. route at a constant temperature of 37° C. The administration of this substance produced in the animals abdominal writhes which were easy to count. The animals used were female Swiss mice of weight 20 + 2 g. […] The value of ED50 was calculated according to the method of Litchfield and Wilcoxon J. Pharmacol. Exp. Ther. 99, 96 (1949).

In the case of `CC(C)Cc1ccc(C(C)C(=O)O)cc1` (stereo not shown) [2(4-isobutylphenyl) propionic acid, reference compound], the 50% effective dose (ED50) was 4.21 mg/kg.
